Assay results from patent publication US10301280B2 (Plexxikon Inc., priority 2012, dated 2019).

Legend:
[1] = tested on: BaF3-FL KIT D816V or BaF3-FL KIT V560G/D816V cell line; test: Cell-based assays of c-Kit mutant kinase activity (cell growth, ATPlite); conditions: at least one of the c-kit cell assays of Example 26
Summary of the method: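 BaF3 cells dependent on full-length human KIT (D816V or V560G/D816V) seeded at 1×10^4 cells/well in RPMI with 10% FBS. Eight-point 1:3 dilutions from 10 μM top final (0.2% DMSO), 3 days at 37° C., 5% CO2. ATPlite luminescence gave IC50.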

c-kit mutant D816V = c-kit mutant D816V (Homo sapiens (Human), UniProt P10721, D816V/DEL694-753); test: c-Kit mutant D816V biochemical assay (AlphaScreen); conditions: c-kit D816V biochemical inhibitory activity
c-kit mutant D816V, sequence (P10721 other isoform, or with tags, fused parts or gaps D816V/del 694-753): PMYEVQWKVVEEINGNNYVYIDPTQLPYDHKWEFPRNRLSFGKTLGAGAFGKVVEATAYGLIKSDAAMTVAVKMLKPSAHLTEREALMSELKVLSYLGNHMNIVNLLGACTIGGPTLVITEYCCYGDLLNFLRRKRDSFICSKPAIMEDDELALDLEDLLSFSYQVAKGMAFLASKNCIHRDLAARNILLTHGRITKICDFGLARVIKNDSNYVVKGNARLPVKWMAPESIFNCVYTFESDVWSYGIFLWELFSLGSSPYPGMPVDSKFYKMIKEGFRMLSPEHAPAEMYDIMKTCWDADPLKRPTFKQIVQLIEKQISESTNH
Method: The c-kit mutant D816V (or kinase domain thereof) is an active kinase in AlphaScreen. IC50 values are determined with respect to inhibition of c-Kit mutant D816V kinase activity, where inhibition of phosphorylation of a peptide substrate is measured as a function of compound concentration. Compounds to be tested were dissolved in DMSO to a concentration of 20 mM. These were diluted 30 μl into 120 μl of DMSO (4 mM) and 1 μl was added to an assay plate. These were then serially diluted 1:3 (50 μl to 100 μl DMSO) for a total of 8 points. Plates were prepared such that each kinase reaction is 20 μl in 1× kinase buffer (25 mM HEPES, pH 7.2, 8 mM MgCl2, 2 mM MnCl2, 50 mM NaCl, 0.01% Brij, 1 mM DTT, 0.01% BSA), 5% DMSO and 10 μM ATP. Substrate was 30 nM biotin-(E4Y)10 (EMD Millipore, Cat#12-440). C-kit mutant D816V kinase was at 0.75 ng per sample. After incubation of the kinase reaction for 30 minutes at room temperature, 5 μl of donor beads (Streptavidin coated beads (Perkin Elmer Life Science) final concentration 7.5 μg/ml) in stop buffer (25 mM Hepes pH 7.5, 100 mM EDTA, 0.01% BSA) was added, the sample was mixed and incubated for 20 minutes at room temperature before adding 5 μl of acceptor beads (PY20 coated beads (Perkin Elmer Life Science) final concentration 7.5 ug/ml) in stop buffer. The samples were incubated for 60 minutes at room temperature and the signal per well was read on EnVision reader. Phosphorylated substrate results in binding of the PY20 antibody and association of the donor and acceptor beads such that signal correlates with kinase activity. The signal vs. compound concentration was used to determine the IC50.
Recombinant c-kit mutant D816V (residues 551-934, kinase insertion domain residues 694-753 deleted) with a 6x-histidine N-terminal tag was expressed in E. coli Arctic Express (DE3) RIL (Stratagene). Cells were grown in Terrific Broth (TB) media to an OD600 of 0.6 at 37° C. at which temperature was reduced to 10° C., protein was induced with 1.0 mM IPTG for 18 hours and harvested by centrifugation at 8000×g for 20 minutes. Cells were re-suspended in 0.1M KPO4 pH 8.0, 250 mM NaCl, 10% Glycerol, 0.75% NP-40, 25 mM Imidazole, 5 mM BME with 0.2 mg/ml Lysosyme, 2.0 mM PMSF, 25 μg/ml DNAse I, incubated in ice for 30 minutes and lyzed with a cell disruptor (MicroFluidics). The lysate was clarified by centrifugation at 20,000×g for 2 hours. The protein was captured with Talon resin (Clontech). Contaminating proteins were washed off with 25 mM Tris-HCl pH 8.3, 250 mM NaCl, 15% Glycerol, 1% Triton X-100, and protein eluted using 100 mM EDTA. The protein was further purified using Gel Filtration column 26/600 Superdex 200 (GE) in 50 mM Tris-HCl, pH 8.0, 250 mM NaCl, 15% Glycerol, 5 mM BME. The protein was aliquoted and flash-frozen in liquid Nitrogen.

Row | SMILES | IC50 [1] [µM] | IC50 (c-kit mutant D816V) [µM]
1 | Cc1[nH]nc(C(=O)Nc2cnc3cc(-c4ccc(F)cc4)nn3c2)c1C [P-2072, N-[2-(4-fluorophenyl)pyrazolo[1,5-a]pyrimidin-6-yl]-4,5-dimethyl-1H-pyrazole-3-carboxamide] | < 10 | 1 to 10
2 | Cc1cc2ncc(NC(=O)c3n[nH]c(C)c3C)cn2n1 [P-2114, 4,5-dimethyl-N-(2-methylpyrazolo[1,5-a]pyrimidin-6-yl)-1H-pyrazole-3-carboxamide] | < 10 | 1 to 10
3 | Cc1n[nH]c(C(=O)Nc2cnc3[nH]c(-c4ccc(OCC5(C)COC5)cc4)cc3c2)c1C [P-2149, 3,4-dimethyl-N-[2-[4-[(3-methyloxetan-3-yl)methoxy]phenyl]-1H-pyrrolo[2,3-b]pyridin-5-yl]-1H-pyrazole-5-carboxamide] | < 10 | 0.0001 to 1
4 | COc1ccc(-c2cc3cc(NC(=O)c4[nH]nc(C)c4C)cnc3[nH]2)c(F)c1 [P-2076, N-[2-(2-fluoro-4-methoxy-phenyl)-1H-pyrrolo[2,3-b]pyridin-5-yl]-3,4-dimethyl-1H-pyrazole-5-carboxamide] | < 10 | 0.0001 to 1
5 | Cc1n[nH]c(C(=O)Nc2cnc3[nH]c(-c4ccc(F)cc4)cc3c2)c1F [P-2275, 4-fluoro-N-[2-(4-fluorophenyl)-1H-pyrrolo[2,3-b]pyridin-5-yl]-3-methyl-1H-pyrazole-5-carboxamide] | < 10 | 0.0001 to 1
6 | CCOc1ncc(-c2cc3cc(NC(=O)c4[nH]nc(C)c4C)cnc3[nH]2)cn1 [P-2153, N-[2-(2-ethoxypyrimidin-5-yl)-1H-pyrrolo[2,3-b]pyridin-5-yl]-3,4-dimethyl-1H-pyrazole-5-carboxamide] | < 10 | 0.0001 to 1
7 | Cc1n[nH]c(C(=O)Nc2cnc3[nH]c(-c4ccnc(C(=O)NC5CC5)c4)cc3c2)c1C [P-2175, N-cyclopropyl-4-[5-[(3,4-dimethyl-1H-pyrazole-5-carbonyl)amino]-1H-pyrrolo[2,3-b]pyridin-2-yl]pyridine-2-carboxamide] | < 10 | 0.0001 to 1
8 | Cc1n[nH]c(C(=O)Nc2cnc3[nH]c(-c4ccccc4F)nc3c2)c1C [P-2152, N-[2-(2-fluorophenyl)-3H-imidazo[4,5-b]pyridin-6-yl]-3,4-dimethyl-1H-pyrazole-5-carboxamide] | < 10 | 0.0001 to 1
9 | Cc1cc(C#N)ccc1-c1cc2cc(NC(=O)c3[nH]nc(C)c3C)cnc2[nH]1 [P-2161, N-[2-(4-cyano-2-methyl-phenyl)-1H-pyrrolo[2,3-b]pyridin-5-yl]-3,4-dimethyl-1H-pyrazole-5-carboxamide] | < 10 | 0.0001 to 1
10 | O=C(Nc1cnc2[nH]c(I)cc2c1)c1cccc2n[nH]cc12 [P-2288, N-(2-iodo-1H-pyrrolo[2,3-b]pyridin-5-yl)-2H-indazole-4-carboxamide] | < 10 | 1 to 10
11 | Cc1n[nH]c(C(=O)Nc2cnc3[nH]nc(-c4ccc(F)cc4)c3c2)c1C [P-2041, N-(3-(4-fluorophenyl)-1H-pyrazolo[3,4-b]pyridin-5-yl)-3,4-dimethyl-1H-pyrazole-5-carboxamide] | < 10 | 0.0001 to 1
12 | COc1ccncc1-c1cc2cc(NC(=O)c3[nH]nc(C)c3C)cnc2[nH]1 [P-2185, N-[2-(4-methoxy-3-pyridyl)-1H-pyrrolo[2,3-b]pyridin-5-yl]-3,4-dimethyl-1H-pyrazole-5-carboxamide] | < 10 | 0.0001 to 1
13 | Cc1cc(C(=O)Nc2cnc3[nH]c(-c4ccccc4)nc3c2)[nH]n1 [P-2151, 3-methyl-N-(2-phenyl-3H-imidazo[4,5-b]pyridin-6-yl)-1H-pyrazole-5-carboxamide] | < 10 | 1 to 10
14 | Cc1n[nH]c(C(=O)Nc2cnc3[nH]c(-c4ccc(Cl)cc4)cc3c2)c1C [P-2122, N-[2-(4-chlorophenyl)-1H-pyrrolo[2,3-b]pyridin-5-yl]-3,4-dimethyl-1H-pyrazole-5-carboxamide] | < 10 | 0.0001 to 1
15 | Cc1nc(F)ccc1-c1cc2cc(NC(=O)c3[nH]nc(C)c3C)cnc2[nH]1 [P-2283, N-[2-(6-fluoro-2-methyl-3-pyridyl)-1H-pyrrolo[2,3-b]pyridin-5-yl]-3,4-dimethyl-1H-pyrazole-5-carboxamide] | < 10 | 0.0001 to 1
16 | Cc1n[nH]c(C(=O)Nc2cnc3[nH]c(I)cc3c2)c1C [P-2188, N-(2-iodo-1H-pyrrolo[2,3-b]pyridin-5-yl)-3,4-dimethyl-1H-pyrazole-5-carboxamide] | < 10 | 1 to 10
17 | COc1ccc(-c2cc3cc(NC(=O)c4[nH]nc(C)c4C)cnc3[nH]2)c(Cl)c1 [P-2075, N-[2-(2-chloro-4-methoxy-phenyl)-1H-pyrrolo[2,3-b]pyridin-5-yl]-3,4-dimethyl-1H-pyrazole-5-carboxamide] | < 10 | 0.0001 to 1
18 | Cc1n[nH]c(C(=O)Nc2cnc3[nH]c(-c4ccccc4)nc3c2)c1Cl [P-2150, 4-chloro-3-methyl-N-(2-phenyl-3H-imidazo[4,5-b]pyridin-6-yl)-1H-pyrazole-5-carboxamide] | < 10 | 0.0001 to 1
19 | Cc1n[nH]c(C(=O)Nc2cnc3[nH]c(-c4ccc(F)nc4)cc3c2)c1C [P-2269, N-[2-(6-fluoro-3-pyridyl)-1H-pyrrolo[2,3-b]pyridin-5-yl]-3,4-dimethyl-1H-pyrazole-5-carboxamide] | < 10 | 0.0001 to 1
20 | Cc1n[nH]c(C(=O)Nc2cnc3[nH]c(-c4cnc(C5CC5)nc4)cc3c2)c1C [P-2155, N-[2-(2-cyclopropylpyrimidin-5-yl)-1H-pyrrolo[2,3-b]pyridin-5-yl]-3,4-dimethyl-1H-pyrazole-5-carboxamide] | < 10 | 0.0001 to 1
21 | COc1ccc(Cl)c(-c2cc3cc(NC(=O)c4[nH]nc(C)c4C)cnc3[nH]2)c1 [P-2077, N-[2-(2-chloro-5-methoxy-phenyl)-1H-pyrrolo[2,3-b]pyridin-5-yl]-3,4-dimethyl-1H-pyrazole-5-carboxamide] | < 10 | 1 to 10
22 | Cc1n[nH]c(C(=O)Nc2cnc3[nH]c(N4CCCC4)cc3c2)c1C [P-2115, 3,4-dimethyl-N-(2-pyrrolidin-1-yl-1H-pyrrolo[2,3-b]pyridin-5-yl)-1H-pyrazole-5-carboxamide] | < 10 | 1 to 10
23 | Cc1n[nH]c(C(=O)Nc2cnc3[nH]c(-c4cc(OC(F)(F)F)ccc4Cl)cc3c2)c1C [P-2113, N-[2-[2-chloro-5-(trifluoromethoxy)phenyl]-1H-pyrrolo[2,3-b]pyridin-5-yl]-3,4-dimethyl-1H-pyrazole-5-carboxamide] | < 10 | 1 to 10
24 | Cc1n[nH]c(C(=O)Nc2cnc3[nH]c(C#CCF)cc3c2)c1C [P-2063, N-[2-(3-fluoroprop-1-ynyl)-1H-pyrrolo[2,3-b]pyridin-5-yl]-3,4-dimethyl-1H-pyrazole-5-carboxamide] | < 10 | 0.0001 to 1
25 | CCc1cc(C(=O)Nc2cnc3[nH]c(-c4ccc(F)cc4)cc3c2)[nH]n1 [P-2159, 3-ethyl-N-[2-(4-fluorophenyl)-1H-pyrrolo[2,3-b]pyridin-5-yl]-1H-pyrazole-5-carboxamide] | < 10 | 0.0001 to 1
26 | Cc1n[nH]c(C(=O)Nc2cnc3[nH]c(-c4cnc(C(C)C)nc4)cc3c2)c1C [P-2154, N-[2-(2-isopropylpyrimidin-5-yl)-1H-pyrrolo[2,3-b]pyridin-5-yl]-3,4-dimethyl-1H-pyrazole-5-carboxamide] | < 10 | 0.0001 to 1
27 | O=C(Nc1cnc2[nH]c(-c3ccc(F)cc3)cc2c1)c1n[nH]c2c1CCC2 [P-2056, N-[2-(4-fluorophenyl)-1H-pyrrolo[2,3-b]pyridin-5-yl]-1,4,5,6-tetrahydrocyclopenta[c]pyrazole-3-carboxamide] | < 10 | 0.0001 to 1
